Experimental data as given in US20250188092A1, “RIFAMYCIN ANALOGS” (THE REGENTS OF THE UNIVERSITY OF MICHIGAN, priority 2021, published 2025).
Values after ≈ are worked out from the molar mass of the structure shown.

What was measured:
VERO cells (ATCC CRL-81) = test: Vero cell toxicity; format: cell-based; conditions: 72 hours exposure
Method: Cytotoxicity for a mammalian cell line was determined by exposing VERO cells (ATCC CRL-81) to serial dilutions of test compounds for 72 hours, followed by addition of resazurin and measurement of fluorescence after 4 hours incubation (Choules, et al., Antimnicrob. Agents Chemother. 2019, 63, e02204-02218).

MTB H37Rv ATCC 27294 = test: MIC, microplate Alamar Blue assay (MABA); format: cell-based, Mycobacterium tuberculosis; conditions: for MIC90 / MIC: MTB H37Rv ATCC 27294, microplate Alamar Blue assay, lowest concentration giving ≥90% reduction in fluorescence; for MIC: read-out: MIC90 MABA
DPX2 cells = conditions: for DPX2 Viability @ 6.25 μM: 24 h; for DPX2 Viability @ 25 μM: human

## CO[C@H]1/C=C/O[C@@]2(C)Oc3c(C)c(O)c4c(=O)c(c5oc6cccc(OCc7ccc(CN8CCOCC8)cc7)c6nc-5c4c3C2=O)NC(=O)/C(C)=C\C=C\[C@H](C)[C@H](O)[C@@H](C)[C@@H](O)[C@@H](C)[C@H](OC(C)=O)[C@@H]1C [Compound 16d, (7S,9E,11S,12R,13S,14R,15R,16R,17S,18S,19E,21Z)-2,15,17-Trihydroxy-11-methoxy-3,7,12,14,16,18,22-heptamethyl-32-({4-[(morpholin-4-yl)methyl]phenyl}methoxy)-6,23,37-trioxo-8,27,38-trioxa-24,34-diazahexacyclo[23.11.1.1^4,7.0^5,36.0^26,35.0^28,33]octatriaconta-1(36)2,4,9,19,21,25,28,30,32,34-undecaen-13-yl acetate]
VERO cells (ATCC CRL-81); Chlorocebus sabaeus, Vero
  IC50: > 10 µM
MTB H37Rv ATCC 27294
  MIC90 MABA Rel to RMP: 0.07
MTB H37Rv ATCC 27294; Mycobacterium tuberculosis
  MIC90: 0.0037 µM
DPX2 cells
  DPX2 Viability @ 6.25 μM: 79%
  DPX2 Viability @ 25 μM: 59%

## CO[C@H]1/C=C/O[C@@]2(C)Oc3c(C)c(O)c4c(=O)c(c5oc6cccc(OCc7ccc(CN8CCN(C)CC8)cc7)c6nc-5c4c3C2=O)NC(=O)/C(C)=C\C=C\[C@H](C)[C@H](O)[C@@H](C)[C@@H](O)[C@@H](C)[C@H](OC(C)=O)[C@@H]1C [Compound 16e, (7S,9E,11S,12R,13S,14R,15R,16R,17S,18S,19E,21Z)-2,15,17-trihydroxy-11-methoxy-3,7,12,14,16,18,22-heptamethyl-32-({4-[(4-methylpiperazin-1-yl)methyl]phenyl}methoxy)-6,23,37-trioxo-8,27,38-trioxa-24,34-diazahexacyclo[23.11.1.1^4,7.0^5,36.0^26,35.0^28,33]octatriaconta-1,3,5(36)9,19,21,25,28,30,32,34-undecaen-13-yl acetate]
VERO cells (ATCC CRL-81); Chlorocebus sabaeus, Vero
  IC50: > 10 µM
MTB H37Rv ATCC 27294
  MIC90 MABA Rel to RMP: 0.16
MTB H37Rv ATCC 27294; Mycobacterium tuberculosis
  MIC90: 0.0064 µM
DPX2 cells
  DPX2 Viability @ 6.25 μM: 63%
  DPX2 Viability @ 25 μM: 41%

## CO[C@H]1/C=C/O[C@@]2(C)Oc3c(C)c(O)c4c(=O)c(c5oc6cc(N7CCN(C(=O)C(C)(C)C)CC7)cc(OCc7ccc(CN8CCOCC8)cc7)c6nc-5c4c3C2=O)NC(=O)/C(C)=C\C=C\[C@H](C)[C@H](O)[C@@H](C)[C@@H](O)[C@@H](C)[C@H](OC(C)=O)[C@@H]1C [Compound 17f, (7S,9E,11S,12R,13S,14R,15R,16R,17S,18S,19E,21Z)-30-[4-(2,2-Dimethylpropanoyl)-piperazin-1-yl]-2,15,17-trihydroxy-11-methoxy-3,7,12,14,16,18,22-heptamethyl-32-({4-[(morpholin-4-yl)methyl]phenyl}methoxy)-6,23,37-trioxo-8,27,38-trioxa-24,34-diazahexacyclo[23.11.1.1^4,7.0^5,36.0^26,35.0^28,33]octatriaconta-1(36)2,4,9,19,21,25,28,30,32,34-undecaen-13-yl acetate]
VERO cells (ATCC CRL-81); Chlorocebus sabaeus, Vero
  IC50: > 10 µM
MTB H37Rv ATCC 27294
  MIC90 MABA Rel to RMP: 1.0
MTB H37Rv ATCC 27294; Mycobacterium tuberculosis
  MIC: 0.027 µM
DPX2 cells
  DPX2 Viability @ 6.25 μM: 85%
  DPX2 Viability @ 25 μM: 71%

## CCC(=O)N1CCN(c2cc(OCc3ccc(CN4CCOCC4)cc3)c3nc4c5c6c7c(C)c(O)c5c(=O)c(c-4oc3c2)NC(=O)/C(C)=C\C=C\[C@H](C)[C@H](O)[C@@H](C)[C@@H](O)[C@@H](C)[C@H](OC(C)=O)[C@H](C)[C@@H](OC)/C=C/O[C@@](C)(O7)C6=O)CC1 [Compound 17g, (7S,9E,11S,12R,13S,14R,15R,16R,17S,18S,19E,21Z)-2,15,17-Trihydroxy-11-methoxy-3,7,12,14,16,18,22-heptamethyl-32-({4-[(morpholin-4-yl)methyl]phenyl}methoxy)-6,23,37-trioxo-30-(4-propanoylpiperazin-1-yl)-8,27,38-trioxa-24,34-diazahexacyclo-[23.11.1.1^4,7.0^5,36.0^26,35.0^28,33]octatriaconta-1(36)2,4,9,19,21,25,28,30,32,34-undecaen-13-yl acetate]
VERO cells (ATCC CRL-81); Chlorocebus sabaeus, Vero
  IC50: > 10 µM
MTB H37Rv ATCC 27294
  MIC90 MABA Rel to RMP: 0.4
MTB H37Rv ATCC 27294; Mycobacterium tuberculosis
  MIC90: 0.012 µM
DPX2 cells
  DPX2 Viability @ 6.25 μM: 117%
  DPX2 Viability @ 25 μM: 56%

## CO[C@H]1/C=C/O[C@@]2(C)Oc3c(C)c(O)c4c(=O)c(c5oc6cc(N7CCN(C8CCN(C)CC8)CC7)cc(OCc7ccc(CN8CCOCC8)cc7)c6nc-5c4c3C2=O)NC(=O)/C(C)=C\C=C\[C@H](C)[C@H](O)[C@@H](C)[C@@H](O)[C@@H](C)[C@H](OC(C)=O)[C@@H]1C [Compound 17h, (7S,9E,11S,12R,13S,14R,15R,16R,17S,18S,19E,21Z)-2,15,17-trihydroxy-11-methoxy-3,7,12,14,16,18,22-heptamethyl-30-[4-(1-methylpiperidin-4-yl)piperazin-1-yl]-32-{[4-(morpholin-4-ylmethyl)phenyl]methoxy}-6,23,37-trioxo-8,27,38-trioxa-24,34-diazahexacyclo-[23.11.1.1^4,7.0^5,36.0^26,35.0^28,33]octatriaconta-1,3,5(36)9,19,21,25,28,30,32,34-undecaen-13-yl acetate]
VERO cells (ATCC CRL-81); Chlorocebus sabaeus, Vero
  IC50: > 10 µM
MTB H37Rv ATCC 27294
  MIC90 MABA Rel to RMP: 1.3
MTB H37Rv ATCC 27294; Mycobacterium tuberculosis
  MIC90: 0.035 µM
DPX2 cells
  DPX2 Viability @ 6.25 μM: 94%
  DPX2 Viability @ 25 μM: 83%

## CO[C@H]1/C=C/O[C@@]2(C)Oc3c(C)c(O)c4c(=O)c(c5oc6cc(N7CCN(CC(=O)O)CC7)cc(OCc7ccc(CN8CCOCC8)cc7)c6nc-5c4c3C2=O)NC(=O)/C(C)=C\C=C\[C@H](C)[C@H](O)[C@@H](C)[C@@H](O)[C@@H](C)[C@H](OC(C)=O)[C@@H]1C [Compound 17i]
VERO cells (ATCC CRL-81); Chlorocebus sabaeus, Vero
  IC50: > 10 µM
MTB H37Rv ATCC 27294
  MIC90 MABA Rel to RMP: 1.0
MTB H37Rv ATCC 27294; Mycobacterium tuberculosis
  MIC: 0.026 µM (≈ 0.0294 µg/mL)
DPX2 cells
  DPX2 Viability @ 6.25 μM: 106%
  DPX2 Viability @ 25 μM: 100%

## CO[C@H]1/C=C/O[C@@]2(C)Oc3c(C)c(O)c4c(=O)c(c5oc6cc(N7CCS(=O)(=O)CC7)cc(OCc7ccc(CN8CCOCC8)cc7)c6nc-5c4c3C2=O)NC(=O)/C(C)=C\C=C\[C@H](C)[C@H](O)[C@@H](C)[C@@H](O)[C@@H](C)[C@H](OC(C)=O)[C@@H]1C [Compound 17j, (7S,9E,11S,12R,13S,14R,15R,16R,17S,18S,19E,21Z)-30-(1,1-dioxothiomorpholin-4-yl)-2,15,17-trihydroxy-11-methoxy-3,7,12,14,16,18,22-heptamethyl-32-([4-(morpholin-4-ylmethyl)phenyl]methoxy)-6,23,37-trioxo-8,27,38-trioxa-24,34-diazahexacyclo-[23.11.1.1^4,7.0^5,36.0^26,35.0^28,33]octatriaconta-1,3,5(36)9,19,21,25,28,30,32,34-undecaen-13-yl acetate]
VERO cells (ATCC CRL-81); Chlorocebus sabaeus, Vero
  IC50: > 10 µM
MTB H37Rv ATCC 27294; Mycobacterium tuberculosis
  MIC: > 0.01 µM
DPX2 cells
  DPX2 Viability @ 6.25 μM: 2%
  DPX2 Viability @ 25 μM: 126%

## CO[C@H]1/C=C/O[C@@]2(C)Oc3c(C)c(O)c4c(=O)c(c5oc6cc(N7CCC(C(=O)O)CC7)cc(OCc7ccc(CN8CCOCC8)cc7)c6nc-5c4c3C2=O)NC(=O)/C(C)=C\C=C\[C@H](C)[C@H](O)[C@@H](C)[C@@H](O)[C@@H](C)[C@H](OC(C)=O)[C@@H]1C [Compound 17k]
VERO cells (ATCC CRL-81); Chlorocebus sabaeus, Vero
  IC50: > 10 µM
MTB H37Rv ATCC 27294
  MIC90 MABA Rel to RMP: 11
MTB H37Rv ATCC 27294; Mycobacterium tuberculosis
  MIC: 0.3 µM (≈ 0.335 µg/mL)
DPX2 cells
  DPX2 Viability @ 6.25 μM: 131%
  DPX2 Viability @ 25 μM: 34%

## CO[C@H]1/C=C/O[C@@]2(C)Oc3c(C)c(O)c4c(=O)c(c5oc6cc(N7CCN(C(=O)c8ccccc8)CC7)cc(OCc7ccc(CN8CCOCC8)cc7)c6nc-5c4c3C2=O)NC(=O)/C(C)=C\C=C\[C@H](C)[C@H](O)[C@@H](C)[C@@H](O)[C@@H](C)[C@H](OC(C)=O)[C@@H]1C [Compound 17m, (7S,9E,11S,12R,13S,14R,15R,16R,17S,18S,19E,21Z)-30-(4-benzoylpiperazin-1-yl)-2,15,17-trihydroxy-1-methoxy-3,7,12,14,16,18,22-heptamethyl-32-{[4-(morpholin-4-ylmethyl)phenyl]methoxy}-6,23,37-trioxo-8,27,38-trioxa-24,34-diazahexacyclo-[23.11.1.1^4,7.0^5,36.0^26,35.0^28,33]octatriaconta-1,3,5(36)9,19,21,25,28,30,32,34-undecaen-13-yl acetate]
VERO cells (ATCC CRL-81); Chlorocebus sabaeus, Vero
  IC50: > 10 µM
MTB H37Rv ATCC 27294
  MIC90 MABA Rel to RMP: 0.34
MTB H37Rv ATCC 27294; Mycobacterium tuberculosis
  MIC90: 0.017 µM
DPX2 cells
  DPX2 Viability @ 6.25 μM: 89%
  DPX2 Viability @ 25 μM: 78%

## CO[C@H]1/C=C/O[C@@]2(C)Oc3c(C)c(O)c4c(=O)c(c5oc6cc(N7CCN(C(=O)c8ccncc8)CC7)cc(OCc7ccc(CN8CCOCC8)cc7)c6nc-5c4c3C2=O)NC(=O)/C(C)=C\C=C\[C@H](C)[C@H](O)[C@@H](C)[C@@H](O)[C@@H](C)[C@H](OC(C)=O)[C@@H]1C [Compound 17n, 7S,9E,11S,12R,13S,14R,15R,16R,17S,18S,19E,21Z)-2,15,17-trihydroxy-11-methoxy-3,7,12,14,16,18,22-heptamethyl-32-{[4-(morpholin-4-ylmethyl)phenyl]methoxy}-6,23,37-trioxo-30-{4-[(pyridin-4-yl)carbonyl]piperazin-1-yl}-8,27,38-trioxa-24,34-diazahexacyclo[23.11.1.1^4,7.0^5,36.0^26,35.0^28,33]octatriaconta-1,3,5(36)9,19,21,25,28,30,32,34-undecaen-13-yl acetate]
VERO cells (ATCC CRL-81); Chlorocebus sabaeus, Vero
  IC50: > 10 µM
MTB H37Rv ATCC 27294
  MIC90 MABA Rel to RMP: 1.5
MTB H37Rv ATCC 27294; Mycobacterium tuberculosis
  MIC90: 0.073 µM
DPX2 cells
  DPX2 Viability @ 6.25 μM: 102%
  DPX2 Viability @ 25 μM: 98%

## CO[C@H]1/C=C/O[C@@]2(C)Oc3c(C)c(O)c4c(=O)c(c5oc6cc(C=O)cc(N7CCN(CC(C)C)CC7)c6nc-5c4c3C2=O)NC(=O)/C(C)=C\C=C\[C@H](C)[C@H](O)[C@@H](C)[C@@H](O)[C@@H](C)[C@H](OC(C)=O)[C@@H]1C [Compound 30d, (7S,9E,11S,12R,13S,14R,15R,16R,17S,1S,19E,21Z)-30-Formyl-2,15,17-trihydroxy-11-methoxy-3,7,12,14,16,18,22-heptamethyl-32-[4-(2-methylpropyl)piperazin-1-yl]-6,23,37-trioxo-8,27,38-trioxa-24,34-diazahexacyclo[23.11.1.1^4,7.0^5,36.0^26,35.0^28,33]octatriaconta-1(36)2,4,9,19,21,25,28,30,32,34-undecaen-13-yl acetate]
VERO cells (ATCC CRL-81)
  IC50: > 8 µM
MTB H37Rv ATCC 27294
  MIC90 MABA Rel to RMP: <0.6
  MIC90: <0.016 µM
